Data as given in patent publication US20100204460A1, “NATURAL BRASSINOSTEROIDS FOR USE FOR TREATING HYPERPROLIFERATION, TREATING PROLIFERATIVE DISEASES AND REDUCING ADVERSE EFFECTS OF STEROID DYSFUNCTION IN MAMMALS, PHARMACEUTICAL COMPOSITION AND ITS USE” (priority 2007, published 2010).

What was measured:
Assay type in all cases: cell-based
DU-145 cells = experiment: Cell cycle distribution by flow cytometry, DU-145; settings: IC50, 24 h; for Cell cycle distribution S: control 15%; for Apoptosis subG1 fraction: control 20%; for Cell cycle distribution G2/M: control 23%; for Cell cycle distribution G1: control 62%
From the text: In the MCF-7 breast cancer cell line that has been the most widely studied experimental cell system, the typical growth inhibitory response to antiestrogens is decrease in the proportion of cells synthesising DNA (S phase) after antiestrogen treatment. This decrease in S phase coincides with an increase in the proportion of cells in G0/G1 phase. The activity of the androgen receptor (AR) is also regulated by alterations in cell signaling. There has been reported ligand independent activation of AR in prostate cancer cells by different growth factors. As the AR can be activated in the absence of hormone, it appears that the conditions may be more restricted than those observed for ER. Use of physiologic doses of ligand (dihydrotestosterone, DHT) is of importance as the LNCaP cells proliferate only at DHT concentration of 10^−9 M or lower. […] In contrast to proliferation, transactivation of AR specific target genes (e.g. PSA) continues to increase with DHT doses of 10^−10 M and higher. It might be accepted for estrogen or androgen receptors as stronger cytotoxic activities of brassinosteroids 9 or 6 on hormone-sensitive (MCF-7, LNCaP) compared to hormone-insensitive (MDA-MB-468, DU-145) cell lines were found. Therefore we explored the possibility of cell cycle perturbation by BRs in different cancer cell lines. Flow cytometry was used to evaluate the number of cells in the particular phases of the cell cycle, including subG1 peak detection. Control and treated cells were washed twice with cold PBS and centrifuged at 360×g for 10 min at 4° C., and fixed with chilled ethanol (70%; v/v) by low-speeded vortexing. For detection of DNA content analysis, propidium iodide staining was used. The cells were analyzed using a FACSCalibur flow cytometer (BD Biosciences, San Jose, Calif.).
Flow-cytometric detection of apoptosis. Several studies have declared that the induction of apoptosis may be cell cycle-dependent. Therefore, in our next series of experiments, we tested if brassinosteroids 9 or 6 cause apoptosis of the breast and prostate cancer cells via cell cycle blockage. From this reason we carried out DNA cell cycle analysis by flow cytometry based on detection of endonucleolytic DNA degradation that results in extraction of low molecular weight DNA from the cells. […] The subG1 peak containing apoptotic bodies was however not observed in MCF-7 cells.

[1] = test system: normal human fibroblasts (BJ); experiment: Calcein AM cytotoxicity assay, BJ; settings: BJ normal fibroblasts; exposure 72 h (b71 says 96 h); mean ± SD; read-out: IC50 assessed by Calcein AM assay of surviving cells
[2] = test system: MCF-7 (estrogen receptor-α-positive) breast cancer cell line; experiment: MTT cytotoxicity test, MCF-7; settings: 24 h, mean ± SD, read-out: IC50 determined by MTT cytotoxicity test
Protocol: 3-(4,5-Dimethylthiazol-2-yl)-2,5-diphenyltetrazolium bromide (MTT) was from Serva Electrophoresis (Heidelberg, Germany). Monoclonal mouse anti-bromodeoxyuridine (BrdU) intibody was obtained from DakoCytomation (Glostrup, Denmark). Calcein AM was obtained from PAA Laboratories GmbH (Pasching, Austria). […] All other cells were cultured in DMEM medium (Sigma, MO, USA). All used media were supplemented with 10% heat-inactivated fetal bovine serum, 2 mmol/L L-glutamine, 1% penicillin/streptomycin. The cell lines were maintained under standard cell culture conditions at 37° C. and 5% CO2 in a humid environment. Cells were subcultured twice or three times a week using the standard trypsinization procedure (Sigma, USA).
Cell viability in this case was assessed by 3-(4,5-dimethylthiozol-2-yl)-2,5-diphenyltetrazolium bromide (MTT) to determine IC50 concentrations of studied agents as described previously. […] The cells (70% to 80% confluent) were treated with brassinosteroids for 6, 12 and 24 h in cell culture medium. Cells that were used as controls were incubated with the maximum used amount of steroid diluent DMSO only. […] The absorbance was read using an ELISA reader Labsystem Multiscan RC at 570 nm. The viability of treated cells was related to the viability of control cells that represented 100% viability. […]

[3] = test system: MCF-7, LNCaP and DU-145 cancer cell lines; experiment: MTT cytotoxicity test, summary over cell lines; settings: over cell lines except MDA-MB-468; 24 h; read-out: IC50 value around which the cell lines move (MTT)
Protocol: Stock solutions ([…]) were prepared by dissolving relevant quantity of substance in DMSO cultivation media (DMEM, RPMI 1640, F-12 medium), fetal bovine serum (FBS), L-glutamine, penicillin, and streptomycin were purchased from Sigma (MO, USA). 3-(4,5-Dimethylthiazol-2-yl)-2,5-diphenyltetrazolium bromide (MTT) was from Serva Electrophoresis (Heidelberg, Germany). Monoclonal mouse anti-bromodeoxyuridine (BrdU) intibody was obtained from DakoCytomation (Glostrup, Denmark). Calcein AM was obtained from PAA Laboratories GmbH (Pasching, Austria). […]
Cell viability in this case was assessed by 3-(4,5-dimethylthiozol-2-yl)-2,5-diphenyltetrazolium bromide (MTT) to determine IC50 concentrations of studied agents as described previously. […] The absorbance was read using an ELISA reader Labsystem Multiscan RC at 570 nm. […]

| Compound | Cell cycle distribution S (DU-145 cells) [%] | Apoptosis subG1 fraction (DU-145 cells) [%] | Cell cycle distribution G2/M (DU-145 cells) [%] | Cell cycle distribution G1 (DU-145 cells) [%] | IC50 [1] [µM] | IC50 [2] [µM] | IC50 [3] [µM] |
| --- | --- | --- | --- | --- | --- | --- | --- |
| CC(C)[C@@H](C)[C@@H](O)[C@H](O)[C@@H](C)[C@H]1CC[C@H]2[C@@H]3COC(=O)[C@H]4C[C@H](O)[C@H](O)C[C@]4(C)[C@H]3CC[C@]12C [Brassinosteroid 6, 24-Epibrassinolide] | 8 | 24 | 39 | 53 | > 50 | 60 ± 1.8 | ~61.7 |
| CC[C@@H](C(C)C)[C@@H](O)[C@H](O)[C@@H](C)[C@H]1CC[C@H]2[C@@H]3CC(=O)[C@H]4C[C@H](O)[C@H](O)C[C@]4(C)[C@H]3CC[C@]12C [Brassinosteroid 9, 28-Homocastasterone] | 8 | 28 | 46 | 46 | > 50 | 40 ± 1.5 | ~43.3 |
